Test results as given in patent US20220363709A1, “ECTONU[…] METHODS OF USE THEREOF” (priority 2019, published 2022).
Read-outs that look alike come from different tables or passages of the source.

Target: T1, recombinant CD73 (Homo sapiens, UniProt P21589)
T1 construct: purchased R&D Systems 5795-EN-010
T1 sequence (P21589 27-547 limits assumed): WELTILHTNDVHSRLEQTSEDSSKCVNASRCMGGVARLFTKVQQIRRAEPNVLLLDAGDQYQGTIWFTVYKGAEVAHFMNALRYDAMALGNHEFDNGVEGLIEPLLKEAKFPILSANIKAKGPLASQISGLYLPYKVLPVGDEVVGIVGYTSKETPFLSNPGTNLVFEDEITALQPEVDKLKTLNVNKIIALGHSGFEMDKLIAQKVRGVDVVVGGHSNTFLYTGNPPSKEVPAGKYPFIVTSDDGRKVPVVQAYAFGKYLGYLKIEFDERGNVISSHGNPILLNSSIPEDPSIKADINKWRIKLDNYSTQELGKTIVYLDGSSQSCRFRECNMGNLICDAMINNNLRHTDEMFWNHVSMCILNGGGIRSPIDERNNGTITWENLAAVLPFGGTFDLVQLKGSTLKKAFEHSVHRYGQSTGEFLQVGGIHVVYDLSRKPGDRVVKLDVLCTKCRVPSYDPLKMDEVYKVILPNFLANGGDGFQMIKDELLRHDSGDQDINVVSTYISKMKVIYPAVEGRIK
Experiment: Assay 1: Inhibition of the CD73 Enzyme In Vitro
Assay type: biochemical
Method: Serial dilutions of test compounds were incubated with recombinant CD73 and AMP in reaction buffer (25 mM Tris HCl pH7.5, 5 mM MgCl2, 50 mM NaCl, 0.25 mM DTT, 0.005% Triton X-100). The final reaction volume was 25 μL and the final concentrations of recombinant CD73 and AMP were 0.5 nM and 50 μM, respectively. […] After 5 minutes at room temperature, absorbance at 630 nm was determined on a microplate spectrophotometer. The concentration of inorganic phosphate was determined using a phosphate standard curve.
ND indicates not determined.

[1] = soluble recombinant CD73 0.5 nM, AMP 50 μM, 30 minutes at room temperature, Malachite Green, absorbance at 630 nm, read-out: Assay 1 CD73 IC50

SMILES | IC50 [1] [nM] | IC50 [nM]
Cc1nc([C@](Cc2ccc(-c3ccccc3)cc2)(OC[C@H]2O[C@@H](n3cnc4c(N)nc(Cl)nc43)[C@H](O)[C@@H]2O)C(=O)O)cs1 (single isomer, unassigned) [Example 28] | 90 | 
Cc1nc([C@@](Cc2ccc(-c3ccccc3)cc2)(OC[C@H]2O[C@@H](n3cnc4c(N)nc(Cl)nc43)[C@H](O)[C@@H]2O)C(=O)O)cs1 (single isomer, unassigned) [Example 29] | 3220 | 
Nc1nc([C@](Cc2ccccc2)(OC[C@H]2O[C@@H](n3cnc4c(N)nc(Cl)nc43)[C@H](O)[C@@H]2O)C(=O)O)cs1 (single isomer, unassigned) [Example 30] | 342 | 
Nc1nc([C@@](Cc2ccccc2)(OC[C@H]2O[C@@H](n3cnc4c(N)nc(Cl)nc43)[C@H](O)[C@@H]2O)C(=O)O)cs1 (single isomer, unassigned) [Example 31] | 1970 | 
Nc1nc(Cl)nc2c1ncn2[C@@H]1O[C@H](CO[C@](Cc2ccccc2)(C(=O)O)c2cocn2)[C@@H](O)[C@H]1O (single isomer, unassigned) [Example 35] | 290 | 
Nc1nc(Cl)nc2c1ncn2[C@@H]1O[C@H](CO[C@@](Cc2ccccc2)(C(=O)O)c2cocn2)[C@@H](O)[C@H]1O (single isomer, unassigned) [Example 36] | 6260 | 
COc1cccc(CO)c1-c1ccc(C[C@@](OC[C@H]2O[C@@H](n3cnc4c(N)nc(Cl)nc43)[C@H](O)[C@@H]2O)(C(=O)O)c2cscn2)cc1 (single isomer, unassigned) [Example 39] | 68 | 
COc1cccc(CO)c1-c1ccc(C[C@](OC[C@H]2O[C@@H](n3cnc4c(N)nc(Cl)nc43)[C@H](O)[C@@H]2O)(C(=O)O)c2cscn2)cc1 (single isomer, unassigned) [Example 40] | 2230 | 
CS(=O)(=O)Nc1ccccc1-c1ccc(C[C@@](OC[C@H]2O[C@@H](n3cnc4c(N)nc(Cl)nc43)[C@H](O)[C@@H]2O)(C(=O)O)c2cscn2)cc1 (single isomer, unassigned) [Example 41] | 43 | 
CS(=O)(=O)Nc1ccccc1-c1ccc(C[C@](OC[C@H]2O[C@@H](n3cnc4c(N)nc(Cl)nc43)[C@H](O)[C@@H]2O)(C(=O)O)c2cscn2)cc1 (single isomer, unassigned) [Example 42] | 904 | 
Nc1nc(Cl)nc2c1ncn2[C@@H]1O[C@H](CO[C@](Cc2ccc(-c3ccccc3OC(F)(F)F)cc2)(C(=O)O)c2cscn2)[C@@H](O)[C@H]1O (single isomer, unassigned) [Example 43] | 51 | 
Nc1nc(Cl)nc2c1ncn2[C@@H]1O[C@H](CO[C@](Cc2ccc(-c3ccccc3C(=O)O)cc2)(C(=O)O)c2ccccc2)[C@@H](O)[C@H]1O (single isomer, unassigned) [Example 47] | 4220 | 
Nc1nc(Cl)nc2c1ncn2[C@@H]1O[C@H](CO[C@@](Cc2ccc(-c3ccccc3C(=O)O)cc2)(C(=O)O)c2ccccc2)[C@@H](O)[C@H]1O (single isomer, unassigned) [Example 48] | 14100 | 
COC(=O)c1ccccc1-c1ccc(CC(OC[C@H]2O[C@@H](n3cnc4c(N)nc(Cl)nc43)[C@H](O)[C@@H]2O)(C(=O)O)c2ccccc2)cc1 (stereo partly drawn) [Example 46, 2-(((2R,3S,4R,5R)-5-(6-amino-2-chloro-9H-purin-9-yl)-3,4-dihydroxytetrahydrofuran-2-yl)methoxy)-3-(2′-(methoxycarbonyl)-[1,1′-biphenyl]-4-yl)-2-phenylpropanoic acid] |  | > 50000
Nc1nc(Cl)nc2c1ncn2[C@@H]1O[C@H](COC(Cc2ccc(-c3ccccc3C(=O)O)cc2)(C(=O)O)c2cscn2)C[C@H]1O (stereo partly drawn) [Example 50, 4′-(2-(((2S,4R,5R)-5-(6-amino-2-chloro-9H-purin-9-yl)-4-hydroxytetrahydrofuran-2-yl)methoxy)-2-carboxy-2-(thiazol-4-yl)ethyl)-[1,1′-biphenyl]-2-carboxylic acid] |  | > 1000

More lines, now with the values ahead:

IC50 [1] [nM] | IC50 [nM] | SMILES
2640 |  | Nc1nc(Cl)nc2c1ncn2[C@@H]1O[C@H](CO[C@@](Cc2ccc(-c3ccccc3)cc2)(C(=O)O)c2cscn2)[C@@H](O)[C@@H]1F (single isomer, unassigned) [Example 9]
227 |  | Nc1nc(Cl)nc2c1ncn2[C@@H]1O[C@H](CO[C@](Cc2ccc(-c3ccc(C(=O)O)cc3)cc2)(C(=O)O)c2cscn2)[C@@H](O)[C@@H]1F (single isomer, unassigned) [Example 10]
1530 |  | Nc1nc(Cl)nc2c1ncn2[C@@H]1O[C@H](CO[C@@](Cc2ccc(-c3ccc(C(=O)O)cc3)cc2)(C(=O)O)c2cscn2)[C@@H](O)[C@@H]1F (single isomer, unassigned) [Example 11]
296 |  | Nc1nc(Cl)nc2c1ncn2[C@@H]1O[C@H](CO[C@](Cc2ccc(C(=O)O)cc2)(C(=O)O)c2cscn2)[C@@H](O)[C@@H]1F (single isomer, unassigned) [Example 15]
4870 |  | Nc1nc(Cl)nc2c1ncn2[C@@H]1O[C@H](CO[C@@](Cc2ccc(C(=O)O)cc2)(C(=O)O)c2cscn2)[C@@H](O)[C@@H]1F (single isomer, unassigned) [Example 16]
170 |  | COc1ncccc1-c1ccc(C[C@@](OC[C@H]2O[C@@H](n3cnc4c(N)nc(Cl)nc43)[C@@H](F)[C@@H]2O)(C(=O)O)c2cscn2)cc1 (single isomer, unassigned) [Example 19]
2750 |  | COc1ncccc1-c1ccc(C[C@](OC[C@H]2O[C@@H](n3cnc4c(N)nc(Cl)nc43)[C@@H](F)[C@@H]2O)(C(=O)O)c2cscn2)cc1 (single isomer, unassigned) [Example 20]
47 |  | Nc1nc(Cl)nc2c1ncn2[C@@H]1O[C@H](CO[C@](Cc2ccc(-c3ccc[nH]c3=O)cc2)(C(=O)O)c2cscn2)[C@@H](O)[C@@H]1F (single isomer, unassigned) [Example 21]
2980 |  | Nc1nc(Cl)nc2c1ncn2[C@@H]1O[C@H](CO[C@@](Cc2ccc(-c3ccc[nH]c3=O)cc2)(C(=O)O)c2cscn2)[C@@H](O)[C@@H]1F (single isomer, unassigned) [Example 22]
365 |  | Nc1nc(Cl)nc2c1ncn2[C@@H]1O[C@H](CO[C@@](Cc2ccc(-c3ccccc3OC(F)(F)F)cc2)(C(=O)O)c2cscn2)[C@@H](O)[C@H]1O (single isomer, unassigned) [Example 44]
